Data reported in patent publication US8822510B2, “Substituted 3-phenyl-1,2,4-Oxadiazole compounds” (Bristol-Myers Squibb Company, priority 2010, dated 2014).

Legend:
S1P3 = S1P3 (Homo sapiens (Human), UniProt Q99500); assay: Receptor [35S] GTPγS Binding Assay, S1P3; format: biochemical; conditions: membranes from EDG3-Ga15-b1a HEK293T cells
Procedure: (§1) Compounds were loaded in a 384 Falcon v-bottom plate (0.5 μl/well in a 11 point, 3-fold dilution). Membranes prepared from S1P1/CHO cells or EDG3-Ga15-b1a HEK293T cells were added to the compound plate (40 μl/well, final protein 3 μg/well) with MULTIDROP®. [^35S] GTP (1250 Ci/mmol, Perkin Elmer) was diluted in assay buffer: 20 mM HEPES, pH7.5, 10 mM MgCl2, 150 mM NaCl, 1 mM EGTA, 1 mM DTT, 10 μM GDP, 0.1% fatty acid free BSA, and 10 μg/ml Saponin to 0.4 nM. 40 μl of the [^35S] GTP solution was added to the compound plate with a final concentration of 0.2 nM. The reaction was kept at room temperature for 45 min. At the end of incubation, all the mixtures in the compound plate were transferred to Millipore 384-well FB filter plates via the VELOCITY 11® Vprep liquid handler. The filter plate was washed with water 4 times by using the manifold Embla plate washer and dried at 60° C. for 45 min. MicroScint 20 scintillation fluid (30 μl) was added to each well for counting on the Packard TOPCOUNT®. EC50 is defined as the agonist concentration that corresponds to 50% of the Ymax (maximal response) obtained for each individual compound tested. The results in Table B were rounded to two digits.
A smaller value for GTPγS S1P1 EC50 value indicated greater activity for the compound in the GTPγS S1P1 binding assay. A larger value for the GTPγS S1P3 EC50 value indicated less activity in the GTPγS S1P3 binding assay.

S1P1 [1] = target: T1, S1P1 (Homo sapiens (Human), UniProt P21453); assay: Receptor [35S] GTPγS Binding Assay, S1P1; format: biochemical; conditions: membranes from S1P1/CHO cells
T1 sequence (P21453 whole entry): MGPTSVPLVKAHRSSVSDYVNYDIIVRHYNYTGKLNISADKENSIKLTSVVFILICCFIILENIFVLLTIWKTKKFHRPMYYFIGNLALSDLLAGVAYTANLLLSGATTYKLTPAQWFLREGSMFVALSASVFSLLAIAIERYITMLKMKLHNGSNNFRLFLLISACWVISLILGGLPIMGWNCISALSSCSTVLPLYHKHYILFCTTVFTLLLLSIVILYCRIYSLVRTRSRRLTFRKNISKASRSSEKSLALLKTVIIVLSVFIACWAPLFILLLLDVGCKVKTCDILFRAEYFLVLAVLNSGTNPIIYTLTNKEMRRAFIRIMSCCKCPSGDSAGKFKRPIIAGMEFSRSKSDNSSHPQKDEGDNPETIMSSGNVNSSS
Procedure: as §1, with “Membranes” for “Compounds were loaded in a 384 Falcon v-bottom plate (0.5 μl/well in a 11 point, 3-fold dilution). Membranes”, “EC50 is defined as the agonist concentration that corresponds to 50% of the Ymax (maximal response) obtained for each individual compound tested.” left out, “digits. […]” for “digits.”

S1P1 [2] = target: T1, S1P1; assay: S1P1 Binding Assay; conditions: 33P-S1P ligand, membranes from CHO cells expressing human S1P1
Procedure: Membranes were prepared from CHO cells expressing human S1P1. Cells pellets (1×10^8 cells/pellet) were suspended in buffer containing 20 mM HEPES, pH 7.5, 50 mM NaCl, 2 mM EDTA and Protease Inhibitor cocktail (Roche), and disrupted on ice using the Polytron homogenizer. The homogenate was centrifuged at 20,000 rpm (48,000 g) and the supernatant was discarded. The membrane pellets were resuspended in buffer containing 50 mM HEPES, pH 7.5, 100 mM NaCl, 1 mM MgCl2, 2 mM EDTA and stored in aliquots at […] after protein concentration determination.
Membranes (2 μg/well) and 0.03 nM final concentration of 33P-S1P ligand (1 mCi/ml, American Radiolabeled Chemicals) diluted in assay buffer (50 mM HEPES, pH7.4, 5 mM MgCl2, 1 mM CaCl2, 0.5% fatty acid free BSA, 1 mM NaF) were added to the compound plates (384 Falcon v-bottom plate (0.5 μl/well in a 11 point, 3-fold dilution). Binding was performed for 45 minutes at room temperature, terminated by collecting the membranes onto 384-well Millipore FB filter plates, and radioactivity was measured by TOPCOUNT®. The competition data of the test compounds over a range of concentrations was plotted as percentage inhibition of radioligand specific binding. The IC50 is defined as the concentration of competing ligand needed to reduce specific binding by 50%.
Table A below lists S1P1 Binding IC50 values from the following examples of this invention measured in the S1P1 binding assay described hereinabove. The results in Table A were rounded to two digits.

circulating lymphocytes = assay: Blood Lymphocyte Reduction Assay (BLR) in Rodents; format: in vivo; conditions: Lewis rats, oral, vs vehicle group
Procedure: Lewis rats were dosed orally with test article (as a solution or suspension in the vehicle) or vehicle alone (polyethylene glycol 300, “PEG300”). Blood was drawn at 4 hr and 24 h by retro-orbital bleeding. Blood lymphocyte counts were determined on an ADVIA 120 Hematology Analyzer (Siemens Healthcare Diagnostics). The results were measured as a reduction in the percentage of circulating lymphocytes as compared to the vehicle treated group at the 4 hr and 24 hr measurement. The results represent the average results of all animals within each treatment group (n=3-4).
The following examples were tested in the Blood Lymphocyte Reduction assay (BLR) described hereinabove and the results are shown in Table C for rats.

S1P3, sequence (Q99500 whole entry): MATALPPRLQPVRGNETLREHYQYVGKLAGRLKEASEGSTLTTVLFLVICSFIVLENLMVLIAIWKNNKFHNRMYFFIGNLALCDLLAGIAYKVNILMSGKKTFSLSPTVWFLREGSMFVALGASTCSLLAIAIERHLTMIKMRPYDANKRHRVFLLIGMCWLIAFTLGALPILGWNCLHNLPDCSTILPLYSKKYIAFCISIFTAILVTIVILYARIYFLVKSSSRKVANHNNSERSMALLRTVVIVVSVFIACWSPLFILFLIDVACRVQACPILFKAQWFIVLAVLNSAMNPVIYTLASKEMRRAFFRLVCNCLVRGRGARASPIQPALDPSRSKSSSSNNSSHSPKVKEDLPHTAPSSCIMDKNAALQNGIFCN

Structure (SMILES)	EC50 (S1P3)	EC50 (S1P1 [1])	IC50 (S1P1 [2])	% REDUCTION IN LYMPHOCYTES AT 4 HR. (circulating lymphocytes; 5.0 mg/kg)	% REDUCTION IN LYMPHOCYTES AT 4 HR. (circulating lymphocytes; 1.0 mg/kg)	% REDUCTION IN LYMPHOCYTES AT 4 HR. (circulating lymphocytes; 20.0 mg/kg)
O=C(O)C1CN(Cc2ccc(-c3noc(COCC4(c5ccc(Cl)cc5)CCC4)n3)c(F)c2)C1 [Example 143, 1-(4-(5-(((1-(4-chlorophenyl)cyclobutyl)methoxy)methyl)-1,2,4-oxadiazol-3-yl)-3-fluorobenzyl)-3-azetidinecarboxylic acid]	3730 nM	17.5 nM	9.72 nM	–	–	–
O=C(O)C1CN(Cc2ccc(-c3noc(/C=C/C4(c5cccc(Cl)c5)CCCCC4)n3)cc2)C1 [Example 90, 1-(4-(5-((E)-2-(1-(3-chlorophenyl)cyclohexyl)vinyl)-1,2,4-oxadiazol-3-yl)benzyl)-3-azetidinecarboxylic acid]	–	–	–	85%	–	–
O=C(O)C1CN(Cc2ccc(-c3noc(CCC4(c5ccccc5)CCCCC4)n3)cc2)C1 [Example 1, 1-(4-(5-(2-(1-phenylcyclohexyl)ethyl)-1,2,4-oxadiazol-3-yl)benzyl)azetidine-3-carboxylic acid]	–	–	–	–	75%	–
O=C(O)C[C@@H]1CC(c2ccc(-c3noc(CCC4(c5ccccc5)CCCCC4)n3)cc2)=NO1 [Example 133, (S)-(3-(4-(5-(2-(1-phenylcyclohexyl)ethyl)-1,2,4-oxadiazol-3-yl)phenyl)-4,5-dihydro-5-isoxazolyl)acetic acid]	–	–	–	–	–	84%
O=C(O)C1CN(Cc2ccc(-c3noc(/C=C/C4(Cc5ccccc5)CCC4)n3)cc2)C1 [Example 103, 1-(4-(5-((E)-2-(1-benzylcyclobutyl)vinyl)-1,2,4-oxadiazol-3-yl)benzyl)-3-azetidinecarboxylic acid]	1490 nM	17.1 nM	–	–	–	–
Cc1cc(-c2noc(/C=C/C3(c4ccc(Cl)cc4)CCCCC3)n2)cc(C)c1OC[C@@H](O)CO [Example 52, (2S)-3-(4-(5-((E)-2-(1-(4-chlorophenyl)cyclohexyl)vinyl)-1,2,4-oxadiazol-3-yl)-2,6-dimethylphenoxy)-1,2-propanediol]	139 nM	8.1 nM	5.75 nM	–	–	–
O=C(O)C1CN(Cc2ccc(-c3noc(C(F)(F)C(O)C4(c5ccc(Cl)cc5)CC4)n3)cc2)C1 (stereo not drawn) [Example 85, 1-(4-(5-(2-(1-(4-chlorophenyl)cyclopropyl)-1,1-difluoro-2-hydroxyethyl)-1,2,4-oxadiazol-3-yl)benzyl)-3-azetidinecarboxylic acid]	> 62500 nM	700 nM	135 nM	–	–	–
O=C(O)C1CN(Cc2ccc(-c3noc(/C=C/C4(c5ccc(C(F)(F)F)cc5)CCCCC4)n3)cc2)C1 [Example 88, 1-(4-(5-((E)-2-(1-(4-(trifluoromethyl)phenyl)cyclohexyl)vinyl)-1,2,4-oxadiazol-3-yl)benzyl)-3-azetidinecarboxylic acid]	–	–	26.7 nM	–	–	–
O=C(O)C1CN(Cc2ccc(-c3noc(CCCC4(c5ccccc5)CCCCC4=O)n3)cc2)C1 (stereo not drawn) [Example 11, 1-(4-(5-(3-(2-oxo-1-phenylcyclohexyl)propyl)-1,2,4-oxadiazol-3-yl)benzyl)azetidine-3-carboxylic acid]	58.6 nM	2.17 nM	1.68 nM	–	–	–
O=C1NC(=O)C2(CN(Cc3ccc(-c4noc(COCC5(c6ccc(Cl)cc6)CCC5)n4)cc3)C2)N1 [Example 19, 2-(4-(5-(((1-(4-chlorophenyl)cyclobutyl)methoxy)methyl)-1,2,4-oxadiazol-3-yl)benzyl)-2,5,7-triazaspiro[3.4]octane-6,8-dione]	5380 nM	1270 nM	477 nM	–	–	–
Cc1cc(-c2noc(CCC3(c4ccc(F)cc4)CCCCC3)n2)cc(C)c1OC[C@@H](O)CO [Example 4]	10.2 nM	0.51 nM	0.12 nM	–	–	–
O=C(O)C1CN(Cc2ccc(-c3noc(CCC4(c5cccnc5)CCOCC4)n3)cc2)C1 [Example 108, 1-(4-(5-(2-(4-(3-pyridinyl)tetrahydro-2H-pyran-4-yl)ethyl)-1,2,4-oxadiazol-3-yl)benzyl)-3-azetidinecarboxylic acid]	> 62500 nM	7360 nM	861 nM	–	–	–
O=C(O)C1CN(Cc2ccc(-c3noc(COCC4(c5ccc(Cl)cc5)CCC4)n3)c(Cl)c2)C1 [Example 141, 1-(3-chloro-4-(5-(((1-(4-chlorophenyl)cyclobutyl)methoxy)methyl)-1,2,4-oxadiazol-3-yl)benzyl)-3-azetidinecarboxylic acid]	5240 nM	50.7 nM	12 nM	–	–	–

Further lines, with some results ahead:

EC50 (S1P3)	EC50 (S1P1 [1])	IC50 (S1P1 [2])	Structure (SMILES)	% REDUCTION IN LYMPHOCYTES AT 4 HR. (circulating lymphocytes; 5.0 mg/kg)	% REDUCTION IN LYMPHOCYTES AT 4 HR. (circulating lymphocytes; 1.0 mg/kg)	% REDUCTION IN LYMPHOCYTES AT 4 HR. (circulating lymphocytes; 20.0 mg/kg)
16.4 nM	0.23 nM	0.47 nM	O=C(O)C1CN(Cc2ccc(-c3noc(CCCC4(c5ccc(F)cc5)CCCCC4)n3)cc2)C1 [Example 9, 1-(4-(5-(3-(1-(4-fluorophenyl)cyclohexyl)propyl)-1,2,4-oxadiazol-3-yl)benzyl)azetidine-3-carboxylic acid]	–	–	–
11.7 nM	0.41 nM	3.4 nM	O=C(O)C1CN(Cc2ccc(-c3noc(C/C=C/C4(c5ccc(F)cc5)CCCCC4)n3)cc2)C1 [Example 100, 1-(4-(5-((2E)-3-(1-(4-fluorophenyl)cyclohexyl)-2-propen-1-yl)-1,2,4-oxadiazol-3-yl)benzyl)-3-azetidinecarboxylic acid]	–	–	–
4.94 nM	2.74 nM	0.21 nM	O=C(O)C1CN(Cc2ccc(-c3noc(CCC4(c5ccc(F)cc5)CCCCC4)n3)cc2)C1 [Example 63, 1-(4-(5-(2-(1-(4-fluorophenyl)cyclohexyl)ethyl)-1,2,4-oxadiazol-3-yl)benzyl)-3-azetidinecarboxylic acid]	–	–	–
9.23 nM	0.78 nM	0.31 nM	O=C(O)C1CN(Cc2ccc(-c3noc(COCC4(c5ccc(F)cc5)CCCCC4)n3)cc2)C1 [Example 18, 1-(4-(5-(((1-(4-fluorophenyl)cyclohexyl)methoxy)methyl)-1,2,4-oxadiazol-3-yl)benzyl)azetidine-3-carboxylic acid]	–	–	–
27.4 nM	0.7 nM	0.54 nM	O=C(O)C1CN(Cc2ccc(-c3noc(CCCC4(c5ccc(Cl)cc5)CCCCC4)n3)cc2)C1 [Example 98, 1-(4-(5-(3-(1-(4-chlorophenyl)cyclohexyl)propyl)-1,2,4-oxadiazol-3-yl)benzyl)-3-azetidinecarboxylic acid]	–	–	–
421 nM	36.9 nM	45.6 nM	O=C(O)C1CN(Cc2ccc(-c3noc(/C=C/C4(c5ccc(Cl)cc5)CCCCC4)n3)cc2)C1 [Example 92, 1-(4-(5-((E)-2-(1-(4-chlorophenyl)cyclohexyl)vinyl)-1,2,4-oxadiazol-3-yl)benzyl)-3-azetidinecarboxylic acid]	–	–	–
